Test results: the CheMixHub viscosity set

Assay: xn = mol fraction of the nth substance listed

CCCC[NH3+].O=[N+]([O-])[O-] + CCCO
Conditions | viscosity [mPa·s]
293.15 K, 101 kPa, x1 = 0.9008 | 83.35

CCN(CC)c1ccccc1 + Oc1ccccc1
viscosity [mPa·s], 101 kPa
Conditions | 298.15 K | 313.15 K | 323.15 K
x1 = 0.0654 | 8.65 | 4.49 | 3.1
x1 = 0.1184 | 8.76 | 4.49 | 3.13
x1 = 0.139 | 8.47 | 4.35 | 3
x1 = 0.1758 | 8.2 | 4.17 | 2.87
x1 = 0.2126 | 7.75 | 3.95 | 2.77
x1 = 0.2997 | 6.44 | 3.49 | 2.48
x1 = 0.3868 | 5.27 | 3 | 2.17
x1 = 0.5 | 4.11 | 2.51 | 1.93
x1 = 0.5955 | 3.27 | 2.13 | 1.65
x1 = 0.6559 | 2.86 | 1.95 | 1.52
x1 = 0.7162 | 2.63 | 1.8 | 1.37
x1 = 0.8502 | 2.17 | 1.48 | 1.22

Cc1ccc(C(C)C)c(O)c1 + CCCCCCCCCC(=O)O
100 kPa, x2 = 0.5
Conditions | viscosity [mPa·s]
293.15 K | 15.28
298.15 K | 12.16
303.15 K | 9.86
308.15 K | 8.12
313.15 K | 6.78
318.15 K | 5.74
323.15 K | 4.91

CCCN(CCC)CCC + C1CCCCC1
viscosity [mPa·s], 101 kPa
Conditions | x1 = 0.01088 | x1 = 0.02001 | x1 = 0.0305 | x1 = 0.04057 | x1 = 0.05108 | x1 = 0.05957 | x1 = 0.06928 | x1 = 0.07872 | x1 = 0.08785
303.15 K | 0.8118 | 0.8071 | 0.8005 | 0.7936 | 0.7874 | 0.7784 | 0.7721 | 0.766 | 0.7599
313.15 K | 0.7082 | 0.6992 | 0.6899 | 0.6808 | 0.673 | 0.6664 | 0.6605 | 0.6541 | 0.6465

CCCCCCCCCCCC(=O)OCC + CCCCCCO
viscosity [mPa·s], 101.33 kPa
Conditions | 293.15 K | 298.15 K | 303.15 K | 308.15 K | 313.15 K | 318.15 K | 323.15 K
x2 = 0.1 | 3.266 | 2.909 | 2.623 | 2.367 | 2.136 | 1.965 | 1.778
x2 = 0.2 | 3.214 | 2.867 | 2.596 | 2.334 | 2.09 | 1.918 | 1.731
x2 = 0.2999 | 3.216 | 2.872 | 2.575 | 2.309 | 2.095 | 1.896 | 1.724
x2 = 0.4 | 3.215 | 2.868 | 2.57 | 2.296 | 2.067 | 1.883 | 1.695
x2 = 0.4999 | – | 2.906 | 2.597 | 2.316 | 2.073 | 1.896 | 1.7
x2 = 0.5 | 3.25 | – | – | – | – | – | –
x2 = 0.5999 | 3.374 | – | – | – | – | – | –
x2 = 0.6 | – | 3.01 | 2.673 | 2.379 | 2.13 | 1.942 | 1.725
x2 = 0.7 | 3.486 | 3.101 | 2.771 | 2.459 | 2.186 | 1.965 | 1.761
x2 = 0.8 | 3.852 | 3.366 | 2.979 | 2.621 | 2.316 | 2.079 | 1.848
x2 = 0.8999 | 4.374 | – | – | – | – | – | –
x2 = 0.9 | – | 3.769 | 3.316 | 2.902 | 2.568 | 2.261 | 1.972

Cc1ccc(C(C)C)c(O)c1 + CC(C)[C@@H]1CC[C@@H](C)C[C@H]1O
Conditions | viscosity [mPa·s]
293.15 K, 100 kPa, x1 = 0.333 | 68.78
293.15 K, 100 kPa, x1 = 0.5 | 54.01
298 K, 101 kPa, x2 = 0.2 | 25.3
298 K, 101 kPa, x2 = 0.25 | 26.8
298 K, 101 kPa, x2 = 0.333 | 32
298.15 K, 100 kPa, x1 = 0.333 | 43.86
298.15 K, 100 kPa, x1 = 0.5 | 35.41
303.15 K, 100 kPa, x1 = 0.333 | 29.46
303.15 K, 100 kPa, x1 = 0.5 | 24.33
308.15 K, 100 kPa, x1 = 0.333 | 20.66
308.15 K, 100 kPa, x1 = 0.5 | 17.41
313.15 K, 100 kPa, x1 = 0.333 | 15.01
313.15 K, 100 kPa, x1 = 0.5 | 12.89
318.15 K, 100 kPa, x1 = 0.333 | 11.25
318.15 K, 100 kPa, x1 = 0.5 | 9.84
323.15 K, 100 kPa, x1 = 0.333 | 8.69
323.15 K, 100 kPa, x1 = 0.5 | 7.72

CC[n+]1ccn(C)c1.NCC(=O)[O-] + CCn1cc[n+](C)c1.N#C[C-](C#N)C#N
Conditions | viscosity [mPa·s]
313.15 K, 101 kPa, x2 = 0.5001 | 22.25

Clc1ccc(Cl)c(Cl)c1 + CCNc1ccccc1
viscosity [mPa·s], 101 kPa
Conditions | 303.15 K | 308.15 K
x2 = 0.0875 | 1.784 | 1.618
x2 = 0.1559 | 1.783 | 1.615
x2 = 0.2286 | 1.782 | 1.612
x2 = 0.2938 | 1.781 | 1.609
x2 = 0.3656 | 1.779 | 1.607
x2 = 0.4225 | 1.777 | 1.604
x2 = 0.4952 | 1.775 | 1.6
x2 = 0.5659 | 1.772 | 1.595
x2 = 0.6359 | 1.768 | 1.589
x2 = 0.7025 | 1.763 | 1.584
x2 = 0.7812 | 1.758 | 1.577
x2 = 0.8525 | 1.752 | 1.571
x2 = 0.9199 | 1.748 | 1.565

CCCN(CCC)CCC + C1COCCO1
Conditions | viscosity [mPa·s]
303.15 K, 101 kPa, x1 = 0.0198 | 1.045

CCCCCCCCCCN + c1ccccc1
303.15 K, 101 kPa
Conditions | viscosity [mPa·s]
x2 = 0.2011 | 1.464
x2 = 0.3988 | 1.174
x2 = 0.4963 | 1.043
x2 = 0.5993 | 0.923
x2 = 0.7973 | 0.7207

CCN(CC)c1ccccc1 + CCCCOCCO
viscosity [mPa·s], 101.3 kPa
Conditions | x2 = 0.0979 | x2 = 0.2008 | x2 = 0.289 | x2 = 0.3526 | x2 = 0.4964 | x2 = 0.5968 | x2 = 0.7021 | x2 = 0.794 | x2 = 0.8979
298 K | 1.87 | 1.887 | 1.923 | 1.968 | 2.102 | 2.198 | 2.343 | 2.461 | 2.631
303 K | 1.679 | 1.686 | 1.711 | 1.756 | 1.853 | 1.942 | 2.067 | 2.175 | 2.305
308 K | 1.511 | 1.516 | 1.538 | 1.572 | 1.655 | 1.731 | 1.844 | 1.927 | 2.048
313 K | 1.369 | 1.371 | 1.393 | 1.429 | 1.487 | 1.552 | 1.65 | 1.725 | 1.824
318 K | 1.248 | 1.249 | 1.262 | 1.286 | 1.365 | 1.402 | 1.481 | 1.544 | 1.631

CCCCC(CC)COC(C)=O (centres undefined) + CCCCO
viscosity [mPa·s], 101.33 kPa
Conditions | x1 = 0.0991 | x1 = 0.2017 | x1 = 0.2984 | x1 = 0.4115 | x1 = 0.5002 | x1 = 0.6078 | x1 = 0.7049 | x1 = 0.8061 | x1 = 0.9005
293.15 K | 2.681 | 2.504 | 2.344 | 2.177 | 2.052 | 1.91 | 1.791 | 1.674 | 1.572
303.15 K | 2.139 | 2.01 | 1.894 | 1.768 | 1.675 | 1.568 | 1.478 | 1.389 | 1.311
313.15 K | 1.605 | 1.529 | 1.461 | 1.386 | 1.329 | 1.264 | 1.207 | 1.151 | 1.101
323.15 K | 1.07 | 1.05 | 1.031 | 1.01 | 0.994 | 0.974 | 0.957 | 0.939 | 0.923

CCN(CC)c1ccccc1 + CCCCCCO
viscosity [mPa·s], 100 kPa
Conditions | x1 = 0.1057 | x1 = 0.1952 | x1 = 0.3004 | x1 = 0.4021 | x1 = 0.5011 | x1 = 0.6117 | x1 = 0.7135 | x1 = 0.8163 | x1 = 0.9045
303.15 K | 3.391 | 3.041 | 2.695 | 2.423 | 2.207 | 2.014 | 1.879 | 1.78 | 1.725
308.15 K | 2.85 | 2.524 | 2.226 | 1.997 | 1.814 | 1.667 | 1.577 | 1.525 | 1.501
313.15 K | 2.403 | 2.096 | 1.835 | 1.652 | 1.518 | 1.405 | 1.332 | 1.297 | 1.313
318.15 K | 2.105 | 1.801 | 1.569 | 1.421 | 1.314 | 1.218 | 1.151 | 1.119 | 1.148

CC(O)CN1CC[NH+](CC(C)O)CC1.CC(O)CN1CC[NH+](CC(C)O)CC1.O=S(=O)([O-])[O-] (centres undefined) + O
viscosity [mPa·s], 101 kPa
Conditions | 298.15 K | 303.15 K | 308.15 K | 313.15 K | 318.15 K | 323.15 K
x1 = 0.0024 | 1.1 | 0.975 | 0.869 | 0.816 | 0.721 | 0.665
x1 = 0.00505 | 1.382 | 1.232 | 1.111 | 1.026 | 0.906 | 0.807
x1 = 0.00812 | 1.834 | 1.634 | 1.434 | 1.355 | 1.176 | 1.025
x1 = 0.0117 | 2.454 | 2.221 | 1.934 | 1.739 | 1.513 | 1.311
x1 = 0.0158 | 3.565 | 3.115 | 2.653 | 2.327 | 2.009 | 1.727
x1 = 0.0208 | 5.31 | 4.49 | 3.747 | 3.216 | 2.675 | 2.282

CCCC(C)CO (centres undefined) + CCO
298.15 K, 101.33 kPa
Conditions | viscosity [mPa·s]
x2 = 0.1048 | 4.615
x2 = 0.2134 | 3.996
x2 = 0.3147 | 3.481
x2 = 0.4122 | 3.014
x2 = 0.5011 | 2.664
x2 = 0.6144 | 2.253
x2 = 0.7136 | 1.884
x2 = 0.7984 | 1.623
x2 = 0.9049 | 1.303

Cc1ccc(C(C)C)c(O)c1 + CCCCCCCCCCCCCCCCCC(=O)O
100 kPa, x2 = 0.1
Conditions | viscosity [mPa·s]
318.15 K | 6.88
323.15 K | 5.68
